Experimental data: patent US6841682B2, “Heterocycles useful in the treatment of benign prostatic hyperplasia” (Janseen Pharmaceutica N.V., priority 1997, dated 2005)

Legend:
α1a-AR = molecular target: T1, α1a-AR (Homo sapiens, UniProt P35348); experiment: radioligand ([125I]-HEAT) receptor binding assay, COS cell membranes, α1a-AR; settings: Tables A-J; [125I]-HEAT 50 pM, COS membranes; read-out: α1a IC50
T1 construct: expressed in transfected cells; host or cells: COS cells (pcDNA3 vector, DEAE-dextran transient transfection); membrane preparation
T1 sequence (P35348 1-466): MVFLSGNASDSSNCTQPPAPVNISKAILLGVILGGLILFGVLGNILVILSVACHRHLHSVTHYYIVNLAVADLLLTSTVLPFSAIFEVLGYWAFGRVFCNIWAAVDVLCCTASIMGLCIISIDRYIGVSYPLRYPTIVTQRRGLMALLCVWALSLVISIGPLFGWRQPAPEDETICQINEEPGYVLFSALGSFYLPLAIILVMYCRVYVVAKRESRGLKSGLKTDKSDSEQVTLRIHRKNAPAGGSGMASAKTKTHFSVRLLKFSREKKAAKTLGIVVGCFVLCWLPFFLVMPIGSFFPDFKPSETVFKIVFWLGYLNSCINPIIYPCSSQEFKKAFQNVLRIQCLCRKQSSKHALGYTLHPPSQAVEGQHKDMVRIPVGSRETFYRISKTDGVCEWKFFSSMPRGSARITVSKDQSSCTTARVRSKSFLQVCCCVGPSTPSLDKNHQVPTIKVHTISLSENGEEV
Text: The first assay tested the ability of compounds of Formula I to bind to membrane bound receptors α1a-AR, α1b-AR and α1d-AR.
The DNA sequences of the three cloned human α1-AR subtypes have been published. […] We used published DNA sequence information to design-primers for use in RT-PCR amplification of each subtype to obtain cloned cDNAs. Human poly A+ RNA was obtained from commercially available sources and included hippocampus and prostate samples, sources which have been cited in the literature. For the primary screen a radio ligand binding assay was used which employed membrane preparations from cells expressing the individual cloned receptor cDNAs.
Each α1 receptor subtype was cloned from poly A+ RNA by the standard method of reverse transcription-polymerase chain reaction (RT-PCR). The following sources of polyA+ RNA were used for the cloning of the al receptor subtypes: α1a-AR, human hippocampus and prostate, α1b-AR, human hippocampus, α1d-AR, human hippocampus. The resulting cDNAs were cloned into the pcDNA3 mammalian expression vector (Invitrogen Corp., San Diego Calif.). Each DNA was sequenced for verification and to detect any possible mutations introduced during the amplification process. Any deviation in sequence from the published consensus for each receptor subtype was corrected by site-directed mutagenesis.
The three α1-AR subtypes (a, b, d) were transfected into COS cells using a standard DEAE-dextran procedure with a chloroquine shock. In this procedure, each tissue culture dish (100 mm) was inoculated with 3.5×10^6 cells and transfected with 10 μg of DNA. Approximately 72 hours post-transfection, the cells were harvested and COS membranes were prepared. Transfected COS cells from 25 plates (100 mm) were scraped and suspended in 15 mL of TE buffer (50 mM Tris-HCl, 5 mM EDTA, pH7.4). The suspension was disrupted with a homogenizer. It was then centrifuged at 1000×g for 10 minutes at 4° C. The supernatant was centrifuged at 34,500×g for 20 minutes at 4° C. The pellet was resuspended in 5 mL TNE buffer (50 mM Tris-HCl, 5 mM EDTA, 150 mM NaCl, pH7.4). The resulting membrane preparation was aliquoted and stored at −70° C. The protein concentration was determined following membrane solubilization with TritonX-100.
The ability of each compound to bind to each of the α1-AR subtypes was assessed in a receptor binding assay. […] The plate was incubated for 1 hour at room temperature and the reaction mixtures were filtered through a Packard GF/C Unifilter filter plate. The filter plate was dried for 1 hour in a vacuum oven. Scintillation fluid ([…]) was added to each well, and the filter plate was counted in a Packard Topcount scintillation counter. Data was analyzed using GraphPad Prism software.

rat prostatic tissue = experiment: norepinephrine-induced contractile response of rat prostatic tissue; type: cell-based; settings: rat prostate strips, 32° C., pH 7.4, read-out: IC50, inhibition of contractile response in prostate tissue
Text: The contractile responses of rat prostatic tissue and rat aorta tissues were examined in the presence and absence of antagonist compounds. As an indication of the selectivity of antagonism, test compound effects on vascular smooth muscle contractility (α1b-AR and α1d-AR) were compared to the effects on prostatic smooth muscle (α1a-AR). Strips of prostatic tissue and aortic rings were obtained from Long Evans derived male rats weighing 275 grams and sacrificed by cervical dislocation. The prostate tissue was placed under 1 gram tension in a 10 ml bath containing phosphate buffered saline pH 7.4 at 32° C. and isometric tension was measured with force transducers. The aortic tissue was placed under 2 grams tension in a 10 ml bath containing phosphate buffered saline pH 7.4 at 37° C. The ability of test compound to reduce the norepinephrine-induced contractile response by 50% (IC50) was determined.

IC50 (α1a-AR) [nM] | IC50 (rat prostatic tissue) [nM] | Structure (SMILES)
2.1 | 1300 | CC(C)Oc1ccccc1N1CCN(Cc2cc(CN3CCCCC3=O)n[nH]2)CC1 [Compound 3]
1.88 | 380 | CC(C)Oc1ccccc1N1CCN(Cc2ncc(CN3CCCCC3=O)s2)CC1 [Compound 16]
